Data taken from US6342219B1 (Board of Regents, The University of Texas System, priority 1999, dated 2002).

Legend:
[1] = test system: VEGF alone or VEGF associated with sFlk-1 (VEGF:Flk-1); assay: Indirect and capture ELISA: reactivity with VEGF alone or VEGF:Flk-1; type: binding, human VEGF; mouse Flk-1
Experimental: The Flk-1/SEAP protein was produced and purified as described by Tessler et al. (1994). Basically, the extracellular domain of Flk-1 (sFlk-1) was produced in Spodoptera frugiperda (Sf9) cells and purified by immunoaffinity techniques utilizing a monoclonal anti-Flk-1 antibody (1A8). sFlk-1 was then biotinylated and bound on avidin-coated plates.
The reactivity was determined as described above for the initial screening.
A capture ELISA was also developed. In the capture ELISA, microtiter plates were coated overnight at 4° C. with 100 ng of the indicated antibody. […] Streptavidin conjugated to peroxidase (Kirkegaard & Perry Laboratories, Inc.), diluted 1:2000, was used as a second layer and developed.

[2] = test system: tumor sections (endothelium, connective tissue, tumor cell); assay: Immunohistochemistry on frozen tumor sections (reactivity pattern); type: binding; set-up: key: EC = endothelium; CT = connective tissue; TC = tumor cell; NR = no reaction; settings: acetone fixed frozen sections; 2C3 and 12D7 at 20 μg/ml, others 5-10 μg/ml
Experimental: (§1) Guinea pig line 10 hepatocellular carcinoma tumor cells (obtained from Dr. Ronald Neuman, NIH, Bethesda, Md.) were grown in strain 2 guinea pigs (NCI, Bethesda, Md.). The human tumors NCI-H358 non-small cell lung carcinoma (NSCLC), NCI-H460 NSCLC (both obtained from Dr. Adi Gazdar, UT Southwestern, Dallas, Tex.), HT29 colon adenocarcinoma (American Type Culture Collection), and L540CY Hodgkin's lymphoma (obtained from Professor V. Diehl, Cologne, Germany) were grown as xenografts in CB17 SCID mice (Charles River, Wilmington, Mass.).
Tumors were snap frozen in liquid nitrogen and stored at −70° C. Frozen samples of tumor specimens from patients were obtained from the National Cancer Institute Cooperative Human Tissue Network (Southern Division, Birmingham, Ala.). Immunohistochemistry was performed as described by Burrows et al. (1995). […]
The immunohistochemical reactivity of 3E7, GV39M, and 11B5 on NCI-H358 human NSCLC xenografts was determined and compared with control antibodies (an IgG of irrelevant specificity; A-20, a rabbit anti-VEGF antibody; and MECA 32, a rat anti-mouse endothelial cell antibody). […]

[3] = test system: human tumor xenografts (NCI-H358, NCI-H460, HT29, L540); assay: Immunohistochemistry, endothelial cell staining, human tumor xenografts; type: binding, human tumors grown in SCID mice; set-up: key: −, negative; +/−, very weak; 1+, weak; 2+, moderate; 3+, strong; 4+, very strong; settings: acetone fixed frozen sections
Experimental: as §1
(§2) Tumors were snap frozen in liquid nitrogen and stored at −70° C. Frozen samples of tumor specimens from patients were obtained from the National Cancer Institute Cooperative Human Tissue Network (Southern Division, Birmingham, Ala.). Immunohistochemistry was performed as described by Burrows et al. (1995).

[4] = test system: human tumors from cancer patients; assay: Immunohistochemistry, endothelial cell staining, human tumors; type: binding; set-up: key: −, negative; +/−, very weak; 1+, weak; 2+, moderate; 3+, strong; 4+, very strong; settings: acetone fixed frozen sections
Experimental: as §2

[5] = test system: mouse VEGF in mouse 3LL Lewis Lung carcinoma tumor sections; assay: Immunohistochemistry, endothelial cell staining, mouse 3LL tumor; type: binding; set-up: key: −, negative; +/−, very weak; 1+, weak; 2+, moderate; 3+, strong; 4+, very strong; settings: acetone fixed frozen sections
Experimental: as §2
Tumors examined through immunohistochemistry were human tumors of various types from cancer patients, transplantable human tumor xenografts of various types grown in mice, guinea pig Line 10 tumor grown in guinea pig, and mouse 3LL tumor grown in mice (see legend to Table 3 for details).

KDR on ABAE cells = assay: 125I-VEGF binding studies on KDR expressing endothelial cells; set-up: species or system bovine
[6] = test system: NCI-H358 NSCLC and HT29 colon adenocarcinoma xenografts and normal organs; assay: In vivo localization to human tumor xenografts in mice; set-up: species or system mouse; key to Immunohistochemical Reactivity, Heart / Immunohistochemical Reactivity, Lung / Immunohistochemical Reactivity, Liver / Immunohistochemical Reactivity, Kidney / Immunohistochemical Reactivity, Intestine / Immunohistochemical Reactivity, Spleen / Immunohistochemical Reactivity, Tumor: −, negative; +/−, very weak; 1+, weak; 2+, moderate; 3+, strong; 4+, very strong
Experimental: Tumors were grown subcutaneously in immunocompromised mice (NCI-H358 NSCLC in nu/nu mice and HT29 colon adenocarcinoma in SCID mice) until the tumor volume was approximately 1 cm^3. 100μg of unlabeled antibody for studies using SCID mice, or 100 μg of biotinylated antibody for studies using nude mice, was injected intravenously via a tail vein. Twenty four hours later, the mice were anesthetized, perfused with PBS, and tumor and organs including heart, lungs, liver, kidneys, intestines and spleen were collected and snap frozen in liquid nitrogen.
The tumor and organs from each mouse were sectioned on a cryostat and stained for antibody immunohistochemically as above, with the exception that sections from the nude mice were developed using peroxidase labeled streptavidin-biotin complex (Dako, Carpinteria, Calif.) and the sections from the SCID mice were developed using two peroxidase-conjugated secondary antibodies, a goat anti-mouse IgG+IgM followed by a rabbit anti-goat Ig.
Twenty-four hours later, the mice were sacrificed, exsanguinated and the tumors and tissues were removed.

NCI-H358 tumors = assay: Prolonged treatment of established NCI-H358 xenografts (FIG. 5A); type: in vivo, mice
Experimental: (§3) FIG. 5A and FIG. 5B. […] Treatments (T) were 100 μg of the IgG given i.p., except for the initial treatment that consisted of 500 μg of the IgG given i.v. Mean tumor volume along with the SEM is shown. At the end of the study (day 116), the mice were sacrificed and the tumors dissected out and weighed. […] The mice were treated every other day as indicated (T). […] Mean tumor volume along with the SE is shown.
In this study, spontaneous regressions were less pronounced. […] The 3E7 treated mice began treatment with a mean tumor volume of 428 mm^3 and rose to a volume of 1326 mm^3 after approximately 14 wk, an increase of […] in volume.

HT1080 fibrosarcoma = assay: Treatment of established HT1080 xenografts (FIG. 5B); type: in vivo, nu/nu mice; settings: 100 μg every two days
Experimental: as §3
Male nu/nu mice bearing subcutaneous NCI-H358 tumors or HT1080 fibrosarcoma 200-400 mm^3 in size were injected i.p. with test or control antibodies. The NCI-H358 bearing mice were treated with 100 μg of antibodies per injection three times a week during the first week and twice a week during the second and third week. The mice were then switched to 50 μg per injection every five days. The HT1080 bearing mice were treated with 100 μg of the indicated antibody or saline every other day throughout the duration of the study. In both studies, mice were sacrificed when their tumors reached 2500 mm^3 in size or earlier if tumors began to ulcerate.

[7] = test system: LS174T colon adenocarcinoma; assay: Treatment of established LS174T tumors; set-up: species or system mice; settings: mouse, in vivo
[8] = 24 hours after i.v. antibody, 2C3 in NCI-H358 nu/nu mice, 3E7 and GV39M in HT29 SCID mice

Chain of VEGF alone or VEGF associated with sFlk-1 (VEGF:Flk-1) (P15692 27-191 isoform P15692-4 limits assumed): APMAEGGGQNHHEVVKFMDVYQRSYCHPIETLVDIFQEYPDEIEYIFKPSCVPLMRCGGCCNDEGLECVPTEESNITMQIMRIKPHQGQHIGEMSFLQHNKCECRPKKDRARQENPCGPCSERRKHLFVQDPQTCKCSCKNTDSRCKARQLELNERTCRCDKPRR

2C3: anti-VEGF monoclonal antibody, IgG2a, k, produced by hybridoma ATCC PTA 1595; blocks VEGF binding to VEGFR2 but not VEGFR1 [Clone 2C3]
Predominant Reactivity [1]: VEGF
Reactivity (immunohistochemical pattern on tumor sections) [2]: NR
Endothelial Cell Staining, Xenograft (various) [3]: −
Endothelial Cell Staining, Hu Tumor (various) [4]: −
Endothelial Cell Staining, Mouse Tumor (3LL) [5]: −
Blocking of 125I-VEGF binding to KDR (KDR on ABAE cells): blocks VEGF from binding to KDR in a concentration dependent manner
Immunohistochemical Reactivity, Heart [6, 8]: −
Immunohistochemical Reactivity, Intestine [6, 8]: −
Immunohistochemical Reactivity, Kidney [6, 8]: −
Immunohistochemical Reactivity, Liver [6, 8]: −
Immunohistochemical Reactivity, Lung [6, 8]: −
Immunohistochemical Reactivity, Spleen [6, 8]: −
Immunohistochemical Reactivity, Tumor ([6]; 24 hours after i.v. antibody, 3E7 and GV39M bound tumor vascular endothelium, 2C3 tumor stroma): 3+
In vivo tumor localization pattern ([6]; CT = connective tissue, BV = blood vessels): Moderate to strong
In vivo localization in the HT29 human tumor model ([6]; HT29): localized strongly to the connective tissue
In vivo normal mouse tissue localization ([6]; mouse, in vivo): None detectable
Mean tumor volume after approximately 14 wk of treatment (NCI-H358 tumors; 100 μg, at start 480 mm^3 (2C3), 428 mm^3 (3E7)): 84 mm^3
Decrease in mean tumor volume (NCI-H358 tumors; after approximately 14 wk): approximately 80%
Mean tumor weight at the end of the study (NCI-H358 tumors; day 116): 0.054 g
Effect on growth of HT1080 tumors (HT1080 fibrosarcoma): arrested the growth of the tumors
Effect on growth of established LS174T tumors [7]: significantly slowed the growth
